Test results from patent publication US20180094248A1, “Necroptosis Signaling as a Therapeutic Target for Alzheimer's Disease” (Arizona Board of Regents on behalf of Arizona State …, priority 2016, published 2018).

Legend:
phosphorylated MLKL = experiment: Western blot of total and phosphorylated MLKL in primary neurons (AAV-GFP experiment); type: cell-based, mouse
Description: At DIV 1, we infected primary cortical neurons isolated from APP/PS1 and wild type mice with an adeno-associated virus (AAV) expressing the green fluorescent protein (GFP) under the neuronal promotor CamKII. At DIV 7 and 11, neurons from the two genotypes were treated with 10 μM Nec1S or vehicle. We then measured GFP fluorescence in live cells as an indication of live neurons.
Western blot and ELISA: The proteins were run using reducing conditions in precast gels (Thermo Fisher Scientific) and transferred to nitrocellulose membranes (iBlot, Thermo Fisher Scientific). […] The blots were then washed with TBS-T, and imaged/quantified using a LICOR Odyssey CLx (LI-COR Biosciences) attached to a Dell computer (OptiPlex 7010) running Windows 7 and Image Studio (version 1.0.11, LI-COR Biosciences). […]
(§1) Primary neuronal cultures—For the GFP experiments: Primary neurons were isolated from APP/PS1 and NonTg Po pups. […] Neurons were treated for a total of 15 days and the GFP fluorescence was measured every 4 days. […] All fluorescent measurements (excitation 488 nm, emission 509 nm) were performed using the Synergy HT multi-mode microplate reader with the Gen5 software (BioTek, Winooski, Vt.). The reader was pre-heated to 37° C. to maintain optimal conditions for the neurons during the measurements. […]

[1] = system: primary cortical neurons from wild type littermate mice; experiment: NeuN count of wild type primary cortical neurons treated with Nec-1S or vehicle; type: cell-based, mouse; settings: 10 μM at DIV 7 and DIV 11
Description: To probe for a direct link between necroptosis and neuronal loss in AD, we plated primary cortical neurons from APP/PS1 and wild type littermate mice. After seven days in vitro (DIV), neurons were treated with 10 μM of the necroptosis inhibitor 7-Cl-O-necrostatin (Nec15) or vehicle. Treatment was repeated at DIV 11. We then fixed neurons at DIV 11 and 15, and stained them for NeuN to count total number of neurons. […] To determine changes in necroptosis, we isolated proteins from neurons of the same four groups and measured the levels of total and phosphorylated MLKL by western blot.
as §1, with “pups. The tissue was then dissociated in Neurobasal media (Thermo Fisher Scientific) and spun down for 3 minutes at 5,000 g at 4° C. The supernatant was discarded and the pellet was re-suspended in 1 ml of Neurobasal media supplemented with B27 (Thermo Fisher Scientific).” for “pups.”

Compound: CN1C(=O)NC(Cc2c[nH]c3c(Cl)cccc23)C1=O (stereo not drawn) [Nec1S, 5-((7-chloro-1 H-indol-3-yl)methyl)-3-methylimidazolidine-2,4-dione]
- pMLKL level (phosphorylated MLKL; DIV 11, all four groups, AAV-GFP experiment): not detectable
- ratio pMLKL/MLKL (phosphorylated MLKL; DIV 15, 10 μM, APP/PS1-veh group vs the other three groups incl. APP/PS1-Nec1S): statistically different compared to the other three groups
- decrease in the number of wild type neurons [1]: did not significantly affect the decrease in the number of wild type neurons
